We go through three molecules from patent publication US7709458B2, “Method for inhibiting cancer cell proliferation or increasing cancer cell apoptosis” (priority 2004, dated 2010).

The test system of experiment [1] is H508 human colon cancer cells. The experiment can be described thus: H508 colon cancer cell proliferation assay (sulforhodamine B colorimetric assay). The conditions noted are these: for effect on basal H508 cell proliferation / effect on EGF-induced H508 cell proliferation / effect on acetylcholine-induced H508 cell proliferation: 50 μM; for effect on basal H508 cell proliferation / potency in reducing acetylcholine- and EGF-stimulated H508 proliferation compared with c-di-GMP: 5 days incubation; for effect on EGF-induced H508 cell proliferation: EGF 1 ng/ml; for effect on EGF-induced H508 cell proliferation / effect on acetylcholine-induced H508 cell proliferation: 5 days; for effect on acetylcholine-induced H508 cell proliferation: acetylcholine 300 μM. It counts as cell-based. How it is done:
H508 colon cancer cell culture. H508 human colon cancer cells were grown in RPMI 1640 (ATCC) supplemented with 10% fetal bovine serum (FBS) (Biowhittaker). Adherent cultures were passaged weekly at subconfluence after trypsinization. Cultures were maintained in incubators at 37° C. in an atmosphere of 5% CO2 and 95% air.
H508 colon cancer cell proliferation assay. Cell proliferation was determined using the sulforhodamine B (SRB) colorimetric assay (Skehan et al., 1990). Cells were seeded in 96-well plates (Corning Glass Works, Corning, N.Y.) at approx. 10% confluence and allowed to attach for 24 h. Growth medium was removed and fresh medium without FBS and containing the indicated concentration of test agent was added. Cells were incubated for the indicated periods of time at 37° C. in an atmosphere of 5% CO2 and 95% air. After incubation, cells were treated for 30 min with 0.4% (w/v) SRB dissolved in 1% acetic acid. Protein-bound dye was extracted with unbuffered 10 mM Tris base. Absorbance was measured at 560 nm using a computer-interfaced, 96-well microtiter plate reader.
c-di-GMP inhibits proliferation of human colon cancer cells. The potential therapeutic actions of c-di-GMP were examined on basal and growth factor-stimulated proliferation of cells derived from a moderately differentiated human cecal adenocarcinoma (H508 cells) that express M3 muscarinic (M3R) and epidermal growth factor (EGF) receptors (EGFR) (Cheng et al., 2003). Cell proliferation was determined using the validated sulforhodamine B (SRB) calorimetric assay (Skehan et al., 1990). H508 cells were incubated in the absence or presence of a growth stimulant, acetylcholine (300 μM) and EGF (1 ng/ml) alone or with increasing concentrations of c-di-GMP (0.5-50 μM). After a 5-day incubation, the highest concentration of c-di-GMP tested, 50 μM, reduced basal H508 cell proliferation by approx. 15% (FIG. 1; p<0.05 compared to control, Student's unpaired t-test).
Background: The SRB assay estimates cell density from bound dye.

The conditions of experiment [2]: patients with Stage II or III disease; adjuvant chemotherapy (Bresalier, 2002); cited from earlier work.

Turning to `Nc1nc2c(ncn2[C@@H]2O[C@H](COP(=O)(O)O)[C@@H](O)[C@H]2O)c(=O)[nH]1` [5′-GMP, guanosine 5′-monophosphate, reference compound], in experiment [1], the “effect on basal H508 cell proliferation” value is “neither of the guanosine analogs tested, cGMP and 5′-GMP, altered basal proliferation”; the “effect on EGF-induced H508 cell proliferation” value is reported as “reduced”; the “effect on acetylcholine-induced H508 cell proliferation” value is reported as “reduced”; the “potency in reducing acetylcholine- and EGF-stimulated H508 proliferation compared with c-di-GMP” value was “less potent in this action than c-di-GMP”.

`Nc1nc2c(ncn2[C@@H]2O[C@@H]3COP(=O)(O)O[C@H]3[C@H]2O)c(=O)[nH]1` [cGMP, guanosine 3′,5′-cyclic monophosphate, reference compound]: in experiment [1], the “effect on basal H508 cell proliferation” value was “neither of the guanosine analogs tested, cGMP and 5′-GMP, altered basal proliferation”; the “effect on EGF-induced H508 cell proliferation” value was “reduced”; the “effect on acetylcholine-induced H508 cell proliferation” value was “reduced”; the “potency in reducing acetylcholine- and EGF-stimulated H508 proliferation compared with c-di-GMP” value is listed as “less potent in this action than c-di-GMP”.

Regarding `O=c1[nH]cc(F)c(=O)[nH]1` [5-fluorouracil], in experiment [2], the “reduction of colon cancer mortality” value was 33% and the “reduction of colon cancer recurrence” value is listed as 42%.
